These results are taken from US7456294B2, “Hairpin polyamide” (Japan Science and Technology Agency, priority 2002, dated 2008).

The test system of experiment [1] is DNA fragment of 450 base pairs. The following applies: 450 base pair DNA fragment; cited from earlier work.
The next experiment deals with long chain DNA (pUC-I′). Briefly: Long chain DNA (pUC-I′) alkylation, 24 hours, sequence gel electrophoresis. The settings on record: for sequence-specific alkylation of long chain DNA: 100 nM to 12.5 nM, 23° C. The experiment is classed as biochemical. How it is done:
The reaction of the hairpin polyamides 1 and 12 to 14 with a DNA was investigated using a long chain DNA (pUC-I′). The alkylation reaction was continued for 24 hours and a sequence gel electrophoresis was conducted for the analysis.
On the other hand, the alkylation of ImPyPy-γ-ImPyPyDu86 (12) was not observed at 100 nM to 12.5 nM (lanes 5 to 8). […] In the description made above or below, a -γ- means a γ-aminobutyric acid residue.
A DNA fragment (pUC-I′) was synthesized by a PCR method using pUC 18 as a template together with a 5′-texas red-labeled 20 base pair primer: 5′-[…]-3′ (pUC 18 forward, 780-799) and 20 base pair primer: 5′-[…]-3′ (pUC18 reverse, 1459-1478). The resultant DNA fragments were purified by filtration through a Suprec-02, and then examined for the UV absorption to determine the respective concentrations.
To 10 μl in total of 5 mM sodium phosphate buffer (pH7.0), a standard reaction solution containing 10 nM of the DNA fragment (pUC-I′) whose 5′-terminal had been labeled with the texas red, 10% (v/v) DMF and an agent at the concentration indicated in FIG. 1 was added in a microcentrifugation tube (Eppendorf) and allowed to stand for 24 hours at 23° C.
A bovine thymus DNA (1 mM, 1 μL) was added for quenching, and the mixture was shaken for 5 minutes at 90° C. The DNA obtained by centrifugation under reduced pressure was combined with 8 μl of a loading color (solution of *FUGENE* Red in DMF) and dissolved, and then shaken for 20 minutes at 94° C. Immediately after this, the mixture was cooled rapidly to 0° C., and a 2 μl aliquot was subjected to an electrophoresis on a 6% denature polyacrylamide gel using a HITACHI 5500-S DNA sequencer system.

The subject of the next experiment is DNA fragment (pUC-I′). Briefly: Alkylation of pUC-I′ DNA within a short period (5 minutes, 1 hour, 2 hours), gel electrophoresis. Type of experiment: biochemical. How it is done: In order to investigate the difference in the reactivity between Compounds 1 and 13 in more detail, the alkylation within a short period was analyzed.
To 10 μl in total of 5 mM sodium phosphate buffer (pH7.0), a standard reaction solution containing 10 nM of the DNA fragment (pUC-I′) whose 5′-terminal had been labeled with the texas red, 10% (v/v) DMF and an agent at the concentration indicated in FIG. 2 was added in a microcentrifugation tube (Eppendorf) and allowed to stand for 5 minutes, 1 hour and 2 hours, respectively at 23° C.
After each reaction time, a bovine thymus DNA (1 mM, 1 μL) was added for quenching, and the mixture was shaken for 5 minutes at 90° C. The DNA obtained by centrifugation under reduced pressure was combined with 8 μl of a loading color (solution of *FUGENE* Red in DMF) and dissolved, and then shaken for 20 minutes at 94° C. Immediately after this, the mixture was cooled rapidly to 0° C., and a 2 μl aliquot was subjected to an electrophoresis on a 6% denature polyacrylamide gel using a HITACHI 5500-S DNA sequencer system.

Experiment [2] has as its system GFP protein expression coding region. As to the kind of experiment: Inhibition of mRNA transcription in GFP coding region with T7 promoter and T7 polymerase. The experiment is classed as biochemical. The settings on record: early stage experiment. The source says:
The condition of the experiment has not been established yet, and a further detailed analysis of the transcription inhibition mechanism is required. […] It leads to a breakthrough toward the development of a novel knockout gene method.

Experiment [3] relates to DNA oligomers 5′-CAAGTCAGAG/5′-CTCTGACTTG
Briefly: Short chain DNA (10 bp) alkylation followed by HPLC. The experiment is classed as biochemical. The following applies: for alkylation of DNA oligomer: 150 μM agent and DNA, 23° C. The source says:
In order to clarify the reactive base site in an alkylation site, the alkylation with Polyamides 12, 13 and 14 was investigated by an HPLC using DNA oligomers 5′-CAAGTCAGAG/5′-CTCTGACTTG as substrates. […] Also by decomposing the oligomers by heating and investigating the degradation products of the oligomers by the method which the inventors reported previously (Tetrahedron Lett. 1990, 31, 7197; Tetrahedron Lett. 1993, 34, 2179 and the like), it was proven that the alkylation reaction occurred at the site indicated by an arrow. […] These findings may be attributable to the difference in the reactivity between the Du and the Du86 similarly to the reactivity on the long chain DNA.
A DNA oligomer synthesized by a DNA synthesizer was employed. To 50 μl in total of 50 mM sodium cacodylate buffer (pH7.0), a standard reaction solution containing 150 μM of the double-stranded DNA fragment, 10% (v/v) DMF and each agent of Compounds 1, 12, 13 and 14 (150 μM) was added in a microcentrifugation tube (Eppendorf) and allowed to stand at 23° C.
The advancement of the reaction was ensured by an HPLC using a *CHEMCOBOND* 5-ODS-H column (4.6×150 mm). The HPLC conditions are shown below.
[Linear gradient of 50 mM ammonium formate: 0-50% acetonitrile (0 to 40 min), flow rate: 1.0 mL/min, 254 nm].

Another experiment has as its system long chain DNA (pUC-II). Briefly: Long chain DNA (pUC-II) alkylation, 24 hours, sequence gel electrophoresis. Type of experiment: biochemical. The following applies: nM concentrations, 23° C. As to the method: For the purpose of comparing the hairpin polyamides 14, 15 and 16, the DNA alkylation reaction employing a long chain DNA (pUC-II) was conducted.
With this regard, the inventors considered that this problem can be solved by replacing the Du86 with CBI: 1,2,9,9a-tetrahydrocyclopropa[c]benz[e]indole-4-one (22), the method for synthesizing which had already been reported by Boger et al. (J. Org. Chem. 1992, 57, 2873; J. Org. Chem. 1995, 60, 1271 and the like). The benefit of using CBI includes the ability of using commercially available 1,3-dihydroxynaphthalene as a starting material and the ability of providing both enantiomers by an optical resolution. Accordingly, the inventors newly synthesized Compound 23 by replacing the Du86 part of Compound 16 with CBI. Then the inventors evaluated the DNA-alkylating ability using a long chain DNA (pUC-II).
A DNA fragment (pUC-II) was synthesized by a PCR method using pUC 18 as a template together with a 5′-texas red-labeled 21 base pair primer: 5′-[…]-3′ (pUC 18 reverse, 1861-1881) and 18 base pair primer: 5′-TGTAAAACGACGGCCAGT-3′ (pUC18 forward, 378-395). The resultant DNA fragments were purified by filtration through a Suprec-02, and then examined for the UV absorption to determine the respective concentrations.
To 10 μl in total of 5 mM sodium phosphate buffer (pH7.0), a standard reaction solution containing 10 nM of the DNA fragment (pUC-II) whose 5′-terminal had been labeled with the texas red, 10% (v/v) DMF and an agent at the concentration indicated in FIG. 4 was added in a microcentrifugation tube (Eppendorf) and allowed to stand for 24 hours at 23° C.
A bovine thymus DNA (1 mM, 1 μL) was added for quenching, and the mixture was shaken for 5 minutes at 90° C. The DNA obtained by centrifugation under reduced pressure was combined with 8 μl of a loading color (solution of *FUGENE* Red in DMF) and dissolved, and then shaken for 20 minutes at 94° C. […]

Experiment [4] deals with 39 human cultured cancer cell lines. As to the kind of experiment: Cytostatic activity on 39 human cultured cancer cell lines. Type of experiment: cell-based. The arrangement: mean IC50 values: scale not given here. The following applies: for mean IC50 values: mean over 39 human cancer cell lines. The source says:
The first is the proportional relationship between the DNA-alkylating ability and the cytostatic activity (FIG. 8). For example, the mean IC50 values of ImPyDu (−4.59), ImPyDu86 (−5.95) and ImPyLDu86 (−8.25) were reduced gradually as the DNA-alkylating ability was increased.
A further interesting result was obtained when comparing the fingerprint patterns indicating the cytostatic activity of the hairpin sequence-specific alkylating agents ImPyPy-γ-ImPyLDu 36 (13) and ImPyPy-γ-ImPyPyLDu 36 (14) (FIG. 9). In general, a high correlation coefficient (r=0.75 to 1.0) is known to be obtained when comparing the fingerprint patterns between the drugs whose action mechanisms are analogous to each other, and in fact an extremely high analogy was observed among a DNA intercalator, doxorubicin, daunorubicin and epirubicin. […] The influence on the cytostatic activity attributable only to the difference in the base sequence-recognizing ability in spite of the analogy in the structure as observed with these Compound 13 and 14 has never been reported, and thus is one of the most important findings.

Experiment [5] deals with DNA sequence PyG(A/T) CPu. The settings on record: cited from earlier work.

“Also recorded” adds a separate entry of the source.

For the molecule `COC(=O)[C@]1(C)NC2=C(C1=O)[C@@]13C[C@@H]1CN(C(=O)c1cc(NC(=O)c4cc(NC(=O)c5nc(NC(=O)CCCNC(=O)c6cc(NC(=O)c7cc(NC(=O)c8nc(NC(C)=O)cn8C)cn7C)cn6C)cn5C)cn4C)cn1C)C3=CC2=O` [Compound 1, ImPyPy-γ-ImPyPyDu], in experiment [1], the “reaction efficiency of sequence-specific DNA alkylation” value is 7% and the “time for sequence-specific alkylation of DNA to complete” value is listed as at least 1 week. Also, in the experiment with long chain DNA (pUC-I′) (24 hours), the “sequence-specific alkylation of long chain DNA” value is “reacted selectively at G in the 5′-GTCAG-3′ sequence in Site 3”. The “alkylation after short reaction time” value in the experiment with DNA fragment (pUC-I′) (one hour) was “no reaction”.
As for `COC(=O)C1=C(C)CC2=C1[C@@]13C[C@@H]1CN(C(=O)/C=C/c1cc(NC(=O)c4nc(NC(=O)CCCNC(=O)c5cc(NC(=O)c6cc(NC(=O)c7nc(NC(C)=O)cn7C)cn6C)cn5C)cn4C)cn1C)C3=CC2=O` [Compound 13, AcImPyPy-γ-ImPyLCPI], in experiment [2], the “mRNA produced by transcription inhibition due to alkylation of the adenine in the 387 nt position” value is reported as “observed successfully”. Further, in experiment [3], the “reactivity on the DNA oligomers compared with other compounds” value (“reactivity … compared with other compounds” for short) is given as “dramatically increased reactivity”. Moreover, the “alkylation of DNA oligomer” value in experiment [3] (after 5 minutes) came to 75%. Further, the “consumption of starting DNA” value in the experiment on long chain DNA (pUC-I′) (100 nM (lane 9), 24 hours) was “disappearance of almost all starting DNA”. Also, the “sequence-specific alkylation of long chain DNA” value with long chain DNA (pUC-I′) (24 hours) is “reacted at A in the GTCAG sequence of the site 3”. Moreover, the “alkylation after short reaction time” value in the experiment with DNA fragment (pUC-I′) (5 minutes) is “caused the alkylation”.
With `COC(=O)c1c(C)[nH]c2c1[C@@]13C[C@@H]1CN(C(=O)/C=C/c1cc(NC(=O)c4cc(NC(=O)c5nc(NC(=O)CCCNC(=O)c6cc(NC(=O)c7cc(NC(=O)c8nc(NC(C)=O)cn8C)cn7C)cn6C)cn5C)cn4C)cn1C)C3=CC2=O` [Compound 14, AcImPyPy-γ-ImPyPyLCPI], the “reactivity … compared with other compounds” value in experiment [3] is “almost equivalent to Compound 1 and poorer than Compound 13”. In addition, the “alkylation of DNA oligomer” value in experiment [3] (after 2 hours) was 46%. In the experiment with long chain DNA (pUC-II), the “sequence-specific alkylation of pUC-II DNA” value was “sequence-specific alkylation was observed at 5′-TGACCA-3′; also recorded: reactivity is far lower than those of Compounds 15 and 16”. Also, in the experiment on long chain DNA (pUC-I′) (24 hours), the “sequence-specific alkylation of long chain DNA” value is “slightly reduced reactivity when compared with Compound 13”.
In the case of `COC(=O)c1c(C)[nH]c2c1[C@@]13C[C@@H]1CN(C(=O)/C=C/c1cc(NC(=O)c4cc(NC(=O)c5nc(NC(=O)CCNC(=O)c6cc(NC(=O)c7cc(NC(=O)c8nc(NC(=O)c9nccn9C)cn8C)cn7C)cn6C)cn5C)cn4C)cn1C)C3=CC2=O` [Compound 16, H-ImImPyPy-γ-ImPyPyLCPI], the “sequence-specific alkylation of pUC-II DNA” value with long chain DNA (pUC-II) is reported as “sequence-specific alkylation was observed at 5′-TGACCA-3′”.
On the same count and under the same terms, as for AcImImPyPy-γ-ImPyPyLDu86 [Compound 15], the entry is “sequence-specific alkylation was observed at 5′-TGACCA-3′”.
Regarding AcImPyPy-γ-ImPyPyCPI [Compound 12], the “reactivity … compared with other compounds” value in experiment [3] is on record as “extremely poorer when compared with Compound 1”. Besides, the “alkylation of DNA oligomer” value in experiment [3] (after 17 hours) was found to be 13%. Besides, the “sequence-specific alkylation of long chain DNA” value with long chain DNA (pUC-I′) (24 hours) was “not observed”. The “alkylation of long chain DNA at elevated concentration” value with long chain DNA (pUC-I′) (10 μM) is “no occurrence of the alkylation”.
As for ImPyDu, the “mean IC50 values” in experiment [4] was −4.59.
As for ImPyDu86, the “mean IC50 values” in experiment [4] is recorded as −5.95.
Regarding ImPyLDu86, the “alkylation induced, share of the compound employed” value in experiment [5] is listed as 70%. Also, in experiment [4], the “mean IC50 values” is −8.25.
Consider ImPyPyLDu86, for which, in experiment [4], the “change of cytostatic activity due to the vinyl linker between polyamide and Du86” value (“change of cytostatic activity due” for short) is listed as “dramatic increase in the cytostatic activity”.
For the molecule PyPyLDu86, the “change of cytostatic activity due” value in experiment [4] is “dramatic increase in the cytostatic activity”.
Regarding PyPyPyLDu86, the “change of cytostatic activity due” value in experiment [4] is “dramatic increase in the cytostatic activity”.
